According to patent US5573772A, “Methods for protecting tissues and organs from ischemic damage” (priority 1994, dated 1996):

Tests used:
[1] = tested on: A3 adenosine receptor (R226); settings: cited from earlier work
[2] = tested on: intact rabbit; experiment: Bradycardia and mean arterial pressure in the anesthetized rabbit, Example 2; settings: I-APNEA 0.25 mg/kg
[3] = tested on: intact, blood perfused rabbit heart; experiment: Infarct size in the intact anesthetized rabbit, 30 min ischemia and reperfusion, Example 2; settings: I-APNEA 0.25 mg/kg iv; control 52±4.3%, PC 9±4.1%
Description: In this study, the effect of the adenosine receptor agonist, I-APNEA, on infarct size in the anesthetized rabbit was compared to the protection observed with ischemic preconditioning (PC).
New Zealand White rabbits (1.5-2.5 kg) were anaesthetized with pentobarbital sodium (40 mg/kg) administered via a catheter in a marginal ear vein. The animals were intubated with a pediatric cuffed endotracheal tube and ventilated with room air using a positive pressure respirator (Harvard Apparatus, Natick, Mass.). The heart was exposed in situ via an incision between the left 4th and 5th ribs, and a branch of the left coronary artery was isolated, using a 3-0 silk suture on RB-taper needle, for later ligation to induce 30 minutes of ischemia followed by 180 minutes of reperfusion. A catheter inserted into a femoral vein was used for administration of fluids and drugs. Infarct size was measured using the method described in the section entitled "Measurement of Infarct Size and Risk Area" in Example 1.
All animals received 30 minutes of regional ischemia, induced by tightening the suture placed around the coronary artery. Following the 30 minutes of ischemia, the suture was loosened, and reperfusion was allowed for the ensuing 180 minutes. Control animals received only the 30 minutes of ischemia and 180 minutes of reperfusion (n=9). Ischemic preconditioning (PC) was induced by 5 minutes of occlusion of the coronary artery followed by 10 minutes of reperfusion before the 30 minutes of occlusion (n=7). In a separate group of rabbits, I-APNEA was delivered intravenously as a slow bolus injection (0.25 mg/kg), beginning 15 minutes prior to the 30 minutes occlusion (n=8). In two additional groups of rabbits, the effects of the A1-selective adenosine receptor blocker, DPCPX, were tested against the effects of PC (n=6) and I-APNEA (n=8). […] At the end of 120 minutes of reperfusion, all animals were killed by an overdose of pentobarbital, and risk area and infarct size were measured.

[4] = tested on: heart; settings: intercoronarily infused before an ischemic insult; cited from earlier work
[5] = tested on: human A3 adenosine receptor; experiment: A3 adenosine receptor binding assay, [125I]-ABA displacement on CHO cell membranes, Example 5
Description: Chinese hamster ovary (CHO) cells, obtained from ATCC, expressing the cloned human A3 adenosine receptor [for example, 5 L cells or a mutagenized A3 adenosine receptor (e.g., A3K2)] were grown under standard cell culture conditions and harvested by mechanical agitation in cell culture medium. All further procedures were carried out at 4° C. The cells were disrupted using a Polytron and the resulting cell membranes collected by centrifugation at 50,000 g for 20 minutes. The pellet was suspended in 10 mM Tris-HCl buffer, pH 7.4, (10^6 cells/mL) using the Polytron and centrifuged at 50,000 g for 20 minutes. […]
For the binding assay, 50 μg of membrane protein were incubated with 0.4 nM [^125 l]-aminobenzyladenosine (ABA, custom synthesized by DuPont:NEN; specific activity=2200 Ci/mmol) in 50 mM Tris-HCl buffer, pH 7.4, containing 5 mM MgCl2 and 1 unit/mL adenosine deaminase in a total volume of 100 μL for 2 hours at room temperature. Membranes containing bound radioactivity were collected on Whatman GF/B filters using a Brandel Cell Harvester and washed 3 times with ice-cold 50 mM Tris-HCl buffer, pH 7.4. Radioactivity was quantified using a Beckman gamma counter. […] The specific binding was then calculated by subtracting this non-specific binding value from the total binding.

[6] = tested on: rabbit heart; experiment: Infarct size in isolated rabbit hearts, A3-receptor mediation of preconditioning, Example 3; settings: BW A1433 200 nM + PC
Description: New Zealand white rabbits of either sex, between 1.4-2.4 kg, were anesthetized with intravenous sodium pentobarbital (30 mg/kg). The neck was opened and a tracheotomy was performed. The rabbits were ventilated with 100% oxygen via a positive pressure respirator (MD industries, Mobile, Ala.). Ventilation rate was 30-35 breaths per minute, and tidal volume was approximately 15 ml. A left thoracotomy was performed in the fourth intercostal space and pericardium was opened to expose the heart. A 2-0 silk suture with an RB taper needle was passed around a branch of the left coronary artery, and the end of the silk were threaded through a small vinyl tube to form a snare. The heads were quickly excised and mounted on a Langendorff apparatus and perfused at constant pressure with Krebs buffer containing (in mM) 118.5 NaCl, 4.7 KCl, 1.2 MgSO4, 1.2 K2 PO4, 24.3 NaHCO3, 2.5 CaCl2 and 10 glucose. […] The temperature of the perfusate was maintained at 37° C. The perfusion pressure was kept at 75 mm Hg. Pacing electrodes were placed on the right atrium and all hearts were paced at 200 beats/minute with pulses of 5 volts and 4 msec duration to keep the heart rate constant. A fluid-filled latex balloon connected to a transducer via PE240 tubing was inserted into the left ventricle. Balloon volume was adjusted to set the left ventricular diastolic pressure at 10 mm Hg at the beginning of the experiment. Total coronary artery flow was measured by timed collection of buffer from the chamber into a graduated cylinder. Regional ischemia was effected by pulling the snare tight and clamping the tube with a hemostat. Global ischemia was performed by clamping the inflow tubing of the Langendorff apparatus. Reperfusion was achieved by releasing the restriction. All hearts were allowed to equilibrate for 20 minutes before the experiments were started. Heart rate (HR), coronary flow (CF) and left ventricular developed pressure (LVDP) were recorded at the point just before and at the end of each treatment with the pacing momentarily turned off. […] The hearts were removed from the Langendorff apparatus, weighed and then frozen. The hearts were cut into 2 mm transverse slices. The slices were thawed and incubated in 1% triphenyl tetrazolium chloride (TTC) in pH 7.4 buffer for 20 minutes at 37° C. TTC reacts with NADH and dehydrogenase enzymes and stains all tissue still having them to a deep red color. […] After staining, the area of infarcted tissue (TTC negative tissue) and the risk zone (area lacking fluorescence under ultraviolet light) in each slice were traced. The area of infarct and risk zone were determined by planimetry of the tracing. The volume of infarcted myocardium and myocardium at risk was then calculated by multiplying the planimetered areas by the slice thickness. The methods utilized in this example are identical to those described in Example 1. All hearts received 30 minutes of regional ischemia as described in Example 1. The control group (n=8) hearts received only 30 minutes of ischemia. Preconditioned (PC) hearts (n=10) received 5 minutes of global ischemia and 10 minutes of reperfusion prior to the regional ischemia. Adenosine (ADO) treated hearts (n=6) received 10 μM adenosine for 5 minutes prior to regional ischemia. APNEA treated hearts (n=6) received 65 μM APNEA for 5 minutes prior to regional ischemia. In groups receiving the nonselective adenosine blocker, 8-SPT, the blocker was included in the perfusate for 15 minutes at 100 μM starting 5 minutes before the exposure of ADO (ADO-SPT group, n=6), or APNEA (APNEA-SPT group, n=6 ) or 5 minutes before and after 5 minutes of preconditioning ischemia (PC-SPT group, n=5). […] For the PC-BW group (n=5), the A3-receptor antagonist, BW A1433, [Linden J, et al., Molecular Pharmacology 44:524-532 (1993)], was administered at a dose of 200 nM in the perfusate for 5 minutes before and 5 minutes after PC ischemia.

Nc1ccc(CCNc2ncnc3c2ncn3[C@@H]2O[C@H](CO)[C@@H](O)[C@H]2O)cc1I [I-APNEA, N^6-2-(4-amino-3-iodophenyl)ethyladenosine]
Binding to R226 [1]: bind
Mean arterial pressure [2]: fall in mean arterial pressure
Infarct size [3]: 17±3.8%

C[C@H](Cc1ccccc1)Nc1ncnc2c1ncn2[C@@H]1O[C@H](CO)[C@@H](O)[C@H]1O [R-PIA, (R)-N-(2-phenyl-1-methylethyl)adenosine]
Ischemic preconditioning effects [4]: beneficial ischemic preconditioning effects

CCNC(=O)[C@H]1O[C@@H](n2cnc3c(N)ncnc32)[C@H](O)[C@@H]1O [NECA, 5'-N-ethylcarboxamidoadenosine]
Binding to R226 [1]: bind

OC[C@H]1O[C@@H](n2cnc3c(NC4CCCC4)nc(Cl)nc32)[C@H](O)[C@@H]1O [CCPA, 2-chloro-N^6-cyclopentyladenosine]
Ischemic preconditioning effects [4]: beneficial ischemic preconditioning effects

Nc1ccc(CNc2ncnc3c2ncn3[C@@H]2O[C@H](CO)[C@@H](O)[C@H]2O)cc1I [I-ABA, N^6-(4-amino-3-iodobenzyl)adenosine]
IC50 ([5]; A3K2 line cell membranes, 0.4 nM [125I]-ABA, read-out: IC50, displacement of [125I]ABA specific binding): 2 nM

Nc1ccc(CNc2ncnc3c2ncn3[C@@H]2O[C@H](CO)[C@@H](O)[C@H]2O)cc1[125I] [[^125 l]ABA, [^125 l]-aminobenzyladenosine]
Binding to human A3 receptors, affinity ([5]; radiolabel, A3K2 cells): high affinity

CCCn1c(=O)c2[nH]c(-c3ccc(/C=C/C(=O)O)cc3)nc2n(CCC)c1=O [BW A1433]
Infarct size (of the risk area) [6]: 26.2±3.2%

CCCn1c(=O)c2[nH]c(-c3ccc(OCC(=O)NCCN)cc3)nc2n(CCC)c1=O [XAC]
Binding to R226 [1]: not to bind
